tested on: isolated guinea pig heart auricles; experiment: Substance effects on the contraction amplitude of isolated guinea pig heart auricles; conditions: Cavia porcellus, active compound concentration 10^-4 g/l, read-out: Contractility (% control)
Description: The cardiac and vascular effects were found on isolated perfused guinea pig hearts. To this end, the hearts of guinea pigs of 250 to 350 g weight are used. The animals are killed by a blow to the head, the thorax is opened, and a metal cannula is tied into the exposed aorta. The heart is separated out of the thorax with the lungs and connected to the perfusion apparatus via an aortic cannula with continuous perfusion. The lungs are separated at the roots of the lung. The perfusion medium used is a Krebs-Henseleit solution (1) (118.5 mmol/l of NaCl, 4.75 mmol/l of KCl, 1.19 mmol/1 of KH2 PO4, 1.19 mmol/l of MgSO4, 25 mmol/l of NaHCO3, 0.013 mmol/l of Na2 EDTA), the CaCl2 content of which is 1.2 mmol/l. 10 mmol/l of glucose are added as an energy-producing substrate. The solution is filtered free from particles before perfusion. The solution is aerated with carbogen (95% O2, 5% CO2) to maintain the pH 7.4. The hearts are perfused with a constant flow (10 ml/min) at 32° C. by means of a peristaltic pump.
For the measurement of cardiac function, a liquid-filled latex balloon which is connected to a pressure transducer via a liquid column is inserted into the left ventricle through the left auricle, and the isovolumetric contractions are recorded on a rapid recorder (Opie, L., J. Physiol., 180 (1965), 529-541). The perfusion pressure is recorded by means of a pressure transducer which is connected to the perfusion system upstream of the heart. Under these conditions, a reduction in the perfusion pressure indicates a coronary dilation, and an increase or decrease in the left-ventricular contraction amplitude indicates […] in the heart contractility. The compounds according to the invention are perfused into the perfusion system in suitable dilutions Just upstream of the isolated heart.
Substance effects on the contraction amplitude of isolated guinea pig heart auricles at an active compound concentration of 10^-4 g/l.

Row | Compound | activation at 0.1 µg/mL
1 | CCOC(=O)C1=C(C)NC(C)=C(C=O)C1c1cccc2ncc(-c3ccccc3)cc12 (stereo not drawn) [Example 1, Ethyl 1,4-dihydro-2,6-dimethyl-3-formyl-4-(3-phenylquinolin-5-yl)-pyridine-5-carboxylate] | 32%
2 | CC1=C(C=O)C(c2cccc3ncc(-c4ccccc4)cc23)C(C(=O)OC(C)C)=C(C)N1 (stereo not drawn) [Example 3] | 31%
3 | COC(=O)C1=C(C)NC(C)=C(C=O)C1c1cccc2ncc(-c3ccccc3)cc12 (stereo not drawn) [Example 4] | 41%

From patent US5420142A, “Certain 3-formyl-1, 4-dihydropyridines and their pharmaceutical composition and use” (Bayer Aktiengesellschaft, priority 1991, dated 1995)
